Test results published in US10364238B2, “N-((het) arylmethyl)-heteroaryl-carboxamides compounds as plasma kallikrein inhibitors” (KALVISTA PHARMACEUTICALS LIMITED, priority 2014, dated 2019).

Key:
Assay type in all cases: biochemical
[1] = target: Human plasma kallikrein (Homo sapiens (Human), UniProt P03952); experiment: Determination of the IC50 for plasma kallikrein; conditions: 25° C., fluorogenic substrate H-DPro-Phe-Arg-AFC; read-out: IC50 (human PKaI)
Procedure: Determination of the IC50 for Plasma Kallikrein
(§1) Human plasma kallikrein (Protogen) was incubated at 25° C. with the fluorogenic substrate H-DPro-Phe-Arg-AFC and various concentrations of the test compound. Residual enzyme activity (initial rate of reaction) was determined by measuring the change in […] at 410 nm and the IC50 value for the test compound was determined.

[2] = target: Human KLK1 (Homo sapiens (Human), UniProt P06870); experiment: Determination of the IC50 for KLK1; conditions: 25° C., fluorogenic substrate H-DVal-Leu-Arg-AFC
Procedure: Determination of the IC50 for KLK1
as §1, with “KLK1 (Callbiochem)” for “plasma kallikrein (Protogen)”, “H-DVal-Leu-Arg-AFC” for “H-DPro-Phe-Arg-AFC”

[3] = target: Human FXIa (Homo sapiens (Human), UniProt P03951); experiment: Determination of the % inhibition for FXIa; conditions: 40 μM test compound, 25° C., substrate Z-Gly-Pro-Arg-AFC
Procedure: Determination of the % Inhibition for FXIa
Human FXIa (Enzyme Research Laboratories) was incubated at 25° C. with the fluorogenic substrate Z-Gly-Pro-Arg-AFC and 40 μM of the test compound. Residual enzyme activity (initial rate of reaction) was determined by measuring the change in […].

Human KLK1, sequence (P06870 25-262): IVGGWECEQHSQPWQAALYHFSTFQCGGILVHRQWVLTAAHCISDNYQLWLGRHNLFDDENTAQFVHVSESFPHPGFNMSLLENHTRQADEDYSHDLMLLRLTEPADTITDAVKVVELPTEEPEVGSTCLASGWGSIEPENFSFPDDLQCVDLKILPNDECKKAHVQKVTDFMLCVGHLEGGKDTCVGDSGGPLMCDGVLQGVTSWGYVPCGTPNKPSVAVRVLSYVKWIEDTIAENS
Human FXIa, sequence (P03951 388-625): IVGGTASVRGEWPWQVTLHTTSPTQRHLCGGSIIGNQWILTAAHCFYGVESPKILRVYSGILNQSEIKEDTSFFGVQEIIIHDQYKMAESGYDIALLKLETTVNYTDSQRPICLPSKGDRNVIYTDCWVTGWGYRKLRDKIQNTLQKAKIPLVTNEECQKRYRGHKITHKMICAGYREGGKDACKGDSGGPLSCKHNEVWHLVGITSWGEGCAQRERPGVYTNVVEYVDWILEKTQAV
Human FXIa, sequence (P03951 19-387 partner): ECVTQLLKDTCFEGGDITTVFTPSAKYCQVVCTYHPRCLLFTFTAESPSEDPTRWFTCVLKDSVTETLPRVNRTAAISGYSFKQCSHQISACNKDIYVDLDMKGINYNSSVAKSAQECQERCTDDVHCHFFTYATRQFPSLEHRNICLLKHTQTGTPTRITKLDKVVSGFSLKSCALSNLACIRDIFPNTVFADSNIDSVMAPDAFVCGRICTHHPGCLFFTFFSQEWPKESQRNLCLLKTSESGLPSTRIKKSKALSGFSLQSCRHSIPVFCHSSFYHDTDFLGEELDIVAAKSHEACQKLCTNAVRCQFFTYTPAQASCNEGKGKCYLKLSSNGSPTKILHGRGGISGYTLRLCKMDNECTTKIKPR
Human plasma kallikrein, sequence (P03952 391-638): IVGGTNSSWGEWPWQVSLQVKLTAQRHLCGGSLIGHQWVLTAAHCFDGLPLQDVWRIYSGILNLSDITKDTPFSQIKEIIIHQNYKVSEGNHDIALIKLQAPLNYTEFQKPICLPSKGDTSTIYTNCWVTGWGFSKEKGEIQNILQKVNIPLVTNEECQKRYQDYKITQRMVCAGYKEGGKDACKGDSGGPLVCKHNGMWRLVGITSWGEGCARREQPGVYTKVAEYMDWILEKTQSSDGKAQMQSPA
Human plasma kallikrein, sequence (P03952 20-390 partner): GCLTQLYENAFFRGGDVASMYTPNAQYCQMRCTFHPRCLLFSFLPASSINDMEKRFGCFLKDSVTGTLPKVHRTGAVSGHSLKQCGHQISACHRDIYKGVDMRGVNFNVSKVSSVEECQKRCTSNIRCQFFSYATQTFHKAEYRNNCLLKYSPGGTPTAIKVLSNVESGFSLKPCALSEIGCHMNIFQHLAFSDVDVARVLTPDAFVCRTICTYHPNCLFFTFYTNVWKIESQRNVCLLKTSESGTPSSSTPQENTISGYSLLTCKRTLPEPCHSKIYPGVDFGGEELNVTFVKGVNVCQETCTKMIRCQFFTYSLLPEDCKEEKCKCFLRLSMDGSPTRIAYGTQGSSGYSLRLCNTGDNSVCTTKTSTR

How did the IC50 [1] turn out when COCc1nn(Cc2ccc(Cn3ccccc3=O)cc2)cc1C(=O)NCc1c(F)cccc1C(N)=O [Example 85, N-[(2-carbamoyl-6-fluorophenyl)methyl]-3-(methoxymethyl)-1-({4-[(2-oxopyridin-1-yl)methyl]phenyl}methyl)pyrazole-4-carboxamide] was run?
Its IC50 is 79.2 nM.

And the IC50 [2]?
Its IC50 is > 40000 nM.

And the inhibition at 40 µM [3]?
The inhibition at 40 µM was 46%.

What does the source list for COCc1nn(Cc2ccc(Cn3ccncc3=O)cc2)cc1C(=O)NCc1cccc(OC)c1F [Example 104, N-[(2-fluoro-3-methoxyphenyl)methyl]-3-(methoxymethyl)-1-({4-[(2-oxopyrazin-1-yl)methyl]phenyl}methyl)pyrazole-4-carboxamide]?
IC50 [1]: 691 nM; IC50 [2]: > 10000 nM; inhibition at 40 µM [3]: 0%

With COCc1nn(Cc2ccc(Cn3ccccc3=O)cc2)cc1C(=O)NCc1ccccc1C(=O)O [Example 87, 2-({[3-(methoxymethyl)-1-({4-[(2-oxopyridin-1-yl)methyl]phenyl}methyl)pyrazol-4-yl]formamido}methyl)benzoic acid] as the molecule, how does the IC50 [1] read?
The IC50 was > 10000 nM.

What about the IC50 [2] of the same molecule?
The IC50 was > 10000 nM.

What about the inhibition at 40 µM [3] of the same molecule?
The inhibition at 40 µM was 2%.

With COCc1nn(Cc2ccc(Cn3ccccc3=O)cc2)cc1C(=O)NCc1cccnc1C(F)(F)F [Example 36, 3-(methoxymethyl)-1-({4-[(2-oxopyridin-1-yl)methyl]phenyl}methyl)-N-{[2-(trifluoromethyl)pyridin-3-yl]methyl}pyrazole-4-carboxamide] as the molecule, how does the IC50 [1] read?
The IC50 was 4170 nM.

What about the IC50 [2] of the same molecule?
The IC50 was > 10000 nM.

What about the inhibition at 40 µM [3] of the same molecule?
The inhibition at 40 µM was 0%.

Which results are given for COCc1nn(Cc2ccc(Cn3ccccc3=O)cc2)cc1C(=O)NCc1cccc(OC)c1C(F)(F)F [Example 78, N-{[3-methoxy-2-(trifluoromethyl)phenyl]methyl}-3-(methoxymethyl)-1-({4-[(2-oxopyridin-1-yl)methyl]phenyl}methyl)pyrazole-4-carboxamide]?
IC50 [1]: 612 nM; IC50 [2]: > 10000 nM; inhibition at 40 µM [3]: 0%

How did the IC50 [1] turn out when COCc1nn(Cc2ccc(Cn3ccccc3=O)cc2)cc1C(=O)NCc1ccccc1C(F)F [Example 68, N-{[2-(difluoromethyl)phenyl]methyl}-3-(methoxymethyl)-1-({4-[(2-oxopyridin-1-yl)methyl]phenyl}methyl)pyrazole-4-carboxamide] was run?
The IC50 was 81.1 nM.

And the IC50 [2]?
Its IC50 is > 10000 nM.

And the inhibition at 40 µM [3]?
Its inhibition at 40 µM is 6%.

For COCc1nn(Cc2ccc(Cn3ccccc3=O)cc2)cc1C(=O)NCc1c(F)cccc1OC(F)F [Example 92, N-{[2-(difluoromethoxy)-6-fluorophenyl]methyl}-3-(methoxymethyl)-1-({4-[(2-oxopyridin-1-yl)methyl]phenyl}methyl)pyrazole-4-carboxamide], which IC50 [1] is on record?
Its IC50 is 16 nM.

And the IC50 [2]?
Its IC50 is > 10000 nM.

What about the inhibition at 40 µM [3] of the same molecule?
The inhibition at 40 µM was 4%.

Which IC50 [1] does the source give for COCc1nn(Cc2ccc(Cn3ccccc3=O)cc2)cc1C(=O)NCc1cccc(OC(F)F)c1 [Example 91, N-{[3-(difluoromethoxy)phenyl]methyl}-3-(methoxymethyl)-1-({4-[(2-oxopyridin-1-yl)methyl]phenyl}methyl)pyrazole-4-carboxamide] here?
The IC50 was 523 nM.

And the IC50 [2]?
Its IC50 is > 10000 nM.

And the inhibition at 40 µM [3]?
The inhibition at 40 µM was 0%.

Nc1nn(Cc2ccc(Cn3ccccc3=O)cc2)cc1C(=O)NCc1ccc(OC(F)(F)F)cc1 [Example 58, 3-amino-1-({4-[(2-oxopyridin-1-yl)methyl]phenyl}methyl)-N-{[4-(trifluoromethoxy)phenyl]methyl}pyrazole-4-carboxamide] was tested. Which IC50 [1] did it give?
The IC50 was 5780 nM.

What about the IC50 [2] of the same molecule?
Its IC50 is > 10000 nM.

And the “% Inhibition @ 40 μM (human FXIa)” value [3]?
Its value is 0%.

With COc1cccc(CNC(=O)c2cn(Cc3ccc(Cn4ccccc4=O)cc3)c(C(F)(F)F)n2)c1F [Example 124, N-[(2-fluoro-3-methoxyphenyl)methyl]-1-({4-[(2-oxopyrldin-1-yl)methyl]phenyl}methyl)-2-(trifluoromethyl)imidazole-4-carboxamide] as the molecule, how does the IC50 [1] read?
The IC50 was 191 nM.

What about the IC50 [2] of the same molecule?
Its IC50 is > 10000 nM.

And the inhibition at 40 µM [3]?
Its inhibition at 40 µM is 0%.

Which results are given for COCc1nn(Cc2ccc(Cn3ccccc3=O)cc2)cc1C(=O)NCc1cccc(OC)c1C(F)F [Example 69, N-{[2-(difluoromethyl)-3-methoxyphenyl]methyl}-3-(methoxymethyl)-1-({4-[(2-oxopyridin-1-yl)methyl]phenyl}methyl)pyrazole-4-carboxamide]?
IC50 [1]: 16.8 nM; IC50 [2]: > 40000 nM; inhibition at 40 µM [3]: 0%

How did the inhibition at 40 µM [3] turn out when CCOc1cccc(CNC(=O)c2cn(Cc3ccc(Cn4cc(C)cn4)cc3)nc2C(F)(F)F)c1 [Example 6, N-[(3-ethoxyphenyl)methyl]-1-({4-[(4-methylpyrazol-1-yl)methyl]phenyl}methyl)-3-(trifluoromethyl)pyrazole-4-carboxamide] was run?
Its inhibition at 40 µM is 0%.

COCc1nn(Cc2ccc(Cn3ccccc3=O)cc2)cc1C(=O)NCc1cnccc1C(F)(F)F [Example 37, 3-(methoxymethyl)-1-({4-[(2-oxopyridin-1-yl)methyl]phenyl}methyl)-N-{[4-(trifluoromethyl)pyridin-3-yl]methyl}pyrazole-4-carboxamide] was tested. Which inhibition at 40 µM [3] did it give?
Its inhibition at 40 µM is 0%.

Which inhibition at 40 µM [3] does the source give for COCc1nn(Cc2ccc(Cn3ccccc3=O)cc2)cc1C(=O)NCc1ccc(C)nc1 [Example 39, 3-(methoxymethyl)-N-[(6-methylpyridin-3-yl)methyl]-1-({4-[(2-oxopyridin-1-yl)methyl]phenyl}methyl)pyrazole-4-carboxamide] here?
The inhibition at 40 µM was 0%.

What does the source list for COCc1nn(Cc2ccc(Cn3ccccc3=O)cc2)cc1C(=O)NCc1cccc(O)c1F [Example 129, N-[(2-fluoro-3-hydroxyphenyl)methyl]-3-(methoxymethyl)-1-({4-[(2-oxopyridin-1-yl)methyl]phenyl}methyl)pyrazole-4-carboxamide]?
IC50 [1]: 437 nM; inhibition at 40 µM [3]: 0%

With COCc1nn(Cc2ccc(Cn3ccccc3=O)cc2)cc1C(=O)NCc1c(F)ccc(OC)c1C(F)F [Example 83, N-{[2-(difluoromethyl)-6-fluoro-3-methoxyphenyl]methyl}-3-(methoxymethyl)-1-({4-[(2-oxopyridin-1-yl)methyl]phenyl}methyl)pyrazole-4-carboxamide] as the molecule, how does the inhibition at 40 µM [3] read?
Its inhibition at 40 µM is 14%.

Which IC50 [1] does the source give for Cc1cnn(Cc2ccc(Cn3cc(C(=O)NCc4c(C)cccc4C)c(C(F)(F)F)n3)cc2)c1 [Example 25, N-[(2,6-dimethylphenyl)methyl]-1-({4-[(4-methylpyrazol-1-yl)methyl]phenyl}methyl)-3-(trifluoromethyl)pyrazole-4-carboxamide] here?
The IC50 was 1840 nM.

What about the IC50 [2] of the same molecule?
The IC50 was > 10000 nM.

With COCc1nn(Cc2ccc(Cn3ccccc3=O)cc2)cc1C(=O)NCc1c(Cl)ccc(OC)c1F [Example 99, N-[(6-chloro-2-fluoro-3-methoxyphenyl)methyl]-3-(methoxymethyl)-1-({4-[(2-oxopyridin-1-yl)methyl]phenyl}methyl)pyrazole-4-carboxamide] as the molecule, how does the inhibition at 40 µM [3] read?
Its inhibition at 40 µM is 4%.

Which IC50 [1] does the source give for COCc1nn(Cc2ccc(Cn3cc(F)ccc3=O)cc2)cc1C(=O)NCc1c(F)ccc(OC)c1F [Example 108, N-[(2,6-difluoro-3-methoxyphenyl)methyl]-1-({4-[(5-fluoro-2-oxopyridin-1-yl)methyl]phenyl}methyl)-3-(methoxymethyl)pyrazole-4-carboxamide] here?
Its IC50 is 5.5 nM.

What about the IC50 [2] of the same molecule?
Its IC50 is > 10000 nM.

What does the source list for Cc1cnn(Cc2ccc(Cn3cc(C(=O)NCc4c(C(F)(F)F)ccc(Cl)c4F)c(C(F)(F)F)n3)cc2)c1 [Example 21, N-{[3-chloro-2-fluoro-6-(trifluoromethyl)phenyl]methyl}-1-({4-[(4-methylpyrazol-1-yl)methyl]phenyl}methyl)-3-(trifluoromethyl)pyrazole-4-carboxamide]?
IC50 [1]: 257 nM; IC50 [2]: > 10000 nM

For Cc1cnn(Cc2ccc(Cn3cc(C(=O)NCc4cccc(F)c4C)c(C(F)(F)F)n3)cc2)c1 [Example 27, N-[(3-fluoro-2-methylphenyl)methyl]-1-({4-[(4-methylpyrazol-1-yl)methyl]phenyl}methyl)-3-(trifluoromethyl)pyrazole-4-carboxamide], which IC50 [1] is on record?
The IC50 was > 10000 nM.

What about the IC50 [2] of the same molecule?
Its IC50 is > 10000 nM.

Which IC50 [1] does the source give for Cc1ccc(CNC(=O)c2cn(Cc3ccc(Cn4cc(C)cn4)cc3)nc2C(F)(F)F)c(C)c1 [Example 24, N-[(2,4-dimethylphenyl)methyl]-1-({4-[(4-methylpyrazol-1-yl)methyl]phenyl}methyl)-3-(trifluoromethyl)pyrazole-4-carboxamide] here?
Its IC50 is 717 nM.

What about the IC50 [2] of the same molecule?
The IC50 was > 10000 nM.

For Cc1cnn(Cc2ccc(Cn3cc(C(=O)NCc4c(F)cccc4C(F)(F)F)c(C(F)(F)F)n3)cc2)c1 [Example 15, N-{[2-fluoro-6-(trifluoromethyl)phenyl]methyl}-1-({4-[(4-methylpyrazol-1-yl)methyl]phenyl}methyl)-3-(trifluoromethyl)pyrazole-4-carboxamide], which IC50 [1] is on record?
The IC50 was 219 nM.

What about the IC50 [2] of the same molecule?
The IC50 was > 10000 nM.

For COCc1nn(Cc2ccc(Cn3ccccc3=O)cc2)cc1C(=O)NCc1c(F)cccc1C(F)F [Example 80, N-{[2-(difluoromethyl)-6-fluorophenyl]methyl}-3-(methoxymethyl)-1-({4-[(2-oxopyridin-1-yl)methyl]phenyl}methyl)pyrazole-4-carboxamide], which IC50 [1] is on record?
Its IC50 is 20.4 nM.

And the IC50 [2]?
The IC50 was > 40000 nM.

NC(=O)c1ccc(CNC(=O)c2cn(Cc3ccc(Cn4ccccc4=O)cc3)nc2C2CC2)cc1 [Example 50, N-[(4-carbamoylphenyl)methyl]-3-cyclopropyl-1-({4-[(2-oxopyridin-1-yl)methyl]phenyl}methyl)pyrazole-4-carboxamide] was tested. Which IC50 [1] did it give?
Its IC50 is 1800 nM.

And the IC50 [2]?
Its IC50 is > 10000 nM.
